For one experiment, the target named is aldose reductase (Homo sapiens, UniProt P15121). The experiment can be described thus: aldose reductase inhibitory activity test in vitro. The experiment is classed as biochemical. A digest of the protocol:
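Absorbance assay with 0.1 mM NADPH solution and enzyme preincubated with compound 10 min at room temperature, then 10 mM D,L-glyceraldehyde solution added as substrate. Incubation 30 min at 37 °C in PBS. Read-out is optical density at 340 nm, corrected with blank (no compound) and background (no substrate) wells.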

In a further experiment the target is T1, α-glucosidase (Saccharomyces cerevisiae, UniProt P53341).
T1 construct: purchased Sigma Corporation G5003
The experiment can be described thus: α-glucosidase inhibitory activity test in vitro. It is filed as biochemical. The settings on record: read-out: α-glucosidase inhibitory activity (IC50).

In the next experiment the target is T2, HMG-CoA reductase (Homo sapiens, UniProt P04035).
T2 sequence (P04035 426-888 limits assumed): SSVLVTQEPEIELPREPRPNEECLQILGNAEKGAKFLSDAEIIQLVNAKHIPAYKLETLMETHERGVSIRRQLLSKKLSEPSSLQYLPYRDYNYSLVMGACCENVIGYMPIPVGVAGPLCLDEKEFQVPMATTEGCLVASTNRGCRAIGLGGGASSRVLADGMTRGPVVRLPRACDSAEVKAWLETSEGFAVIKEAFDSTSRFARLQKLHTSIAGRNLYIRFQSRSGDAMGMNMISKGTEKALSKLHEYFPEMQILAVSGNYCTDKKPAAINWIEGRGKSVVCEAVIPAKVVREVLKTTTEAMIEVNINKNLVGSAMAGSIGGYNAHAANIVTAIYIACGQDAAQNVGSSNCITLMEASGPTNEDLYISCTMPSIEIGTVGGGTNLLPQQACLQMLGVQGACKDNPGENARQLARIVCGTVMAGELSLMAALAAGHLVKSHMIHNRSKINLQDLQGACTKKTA
The experiment in a line: HMG-CoA reductase inhibitory activity test in vitro. It is filed as biochemical.

The target in experiment [1] is T3, protein tyrosine phosphatase 1B (PTP-1B) (Homo sapiens, UniProt P18031).
T3 sequence (P18031 1-435): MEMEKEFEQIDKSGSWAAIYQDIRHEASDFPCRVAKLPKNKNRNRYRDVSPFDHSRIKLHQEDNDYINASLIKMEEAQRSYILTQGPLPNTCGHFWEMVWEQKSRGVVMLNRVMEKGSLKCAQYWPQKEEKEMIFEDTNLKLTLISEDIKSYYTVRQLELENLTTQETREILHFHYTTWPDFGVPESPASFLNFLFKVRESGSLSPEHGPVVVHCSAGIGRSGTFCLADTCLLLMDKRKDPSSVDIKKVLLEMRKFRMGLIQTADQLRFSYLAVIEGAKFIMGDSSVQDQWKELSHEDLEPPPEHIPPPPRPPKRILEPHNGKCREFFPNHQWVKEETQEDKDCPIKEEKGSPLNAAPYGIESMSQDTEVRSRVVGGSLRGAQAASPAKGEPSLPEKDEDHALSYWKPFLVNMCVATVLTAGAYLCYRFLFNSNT
The experiment can be described thus: PTP-1B inhibitory activity test in vitro. The experiment is classed as biochemical. In outline: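 Compound was preincubated 10 min at room temperature with 170 μg/mL PTP-1B solution, then 1 mM pNPP substrate was added and incubated 37 °C for 30 min. Reaction stopped with 3M NaOH; absorbance read at […], with blank and compound-background controls.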

Another experiment addresses T4, dipeptidyl peptidase-4 (Homo sapiens, UniProt P27487).
T4 construct: purchased
The experiment can be described thus: dipeptidyl peptidase-4 inhibitory activity test in vitro (DPP-4 inhibitor screening kit). The experiment is classed as biochemical. The source says:
The above compounds are detected by DPP-4 inhibitor screening kit.

Experiment [2] concerns hyperglycemia mice induced by alloxan. The experiment in a line: blood sugar of hyperglycemia mice induced by alloxan. It is filed as in vivo, Kunming species mice. On the procedure: Blood glucose determination kit (batch number 20140403) is purchased from Nanjing Jiancheng Bioengineering Institute. Methods: after being acclimatized for 1 week, 10 randomly selected Kunming species male mice of SPF level of 20±2 g are used as control group, while the other 50 mice are given alloxan to make model by intraperitoneal injection according to body weight 220 mg/kg.

Marks after values point to notes of the source that are not given here.

This note sets out measurements from US10441562B2, “Aromatic farnesyl compound and application thereof” (INSTITUTE OF MICROBIOLOGY, CHINESE ACADEMY OF SCIENCES, priority 2015, dated 2019).

T1 sequence (P53341 whole entry): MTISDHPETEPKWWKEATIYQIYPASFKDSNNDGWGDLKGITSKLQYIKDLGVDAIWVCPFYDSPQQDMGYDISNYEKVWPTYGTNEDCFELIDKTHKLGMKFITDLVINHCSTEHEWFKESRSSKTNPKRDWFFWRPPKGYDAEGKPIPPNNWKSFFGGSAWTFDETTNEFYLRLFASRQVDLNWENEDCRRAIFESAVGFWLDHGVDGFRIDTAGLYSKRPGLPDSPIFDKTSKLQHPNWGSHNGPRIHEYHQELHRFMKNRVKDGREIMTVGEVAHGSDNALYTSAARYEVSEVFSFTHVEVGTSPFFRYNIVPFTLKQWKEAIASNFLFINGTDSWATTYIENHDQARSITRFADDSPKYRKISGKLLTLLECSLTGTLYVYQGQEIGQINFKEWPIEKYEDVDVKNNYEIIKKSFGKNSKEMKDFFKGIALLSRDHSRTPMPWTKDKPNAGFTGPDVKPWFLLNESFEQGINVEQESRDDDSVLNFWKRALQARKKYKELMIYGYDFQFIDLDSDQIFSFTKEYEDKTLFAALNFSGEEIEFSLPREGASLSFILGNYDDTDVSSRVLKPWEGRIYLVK
T4 sequence (P27487 whole entry, species assumed): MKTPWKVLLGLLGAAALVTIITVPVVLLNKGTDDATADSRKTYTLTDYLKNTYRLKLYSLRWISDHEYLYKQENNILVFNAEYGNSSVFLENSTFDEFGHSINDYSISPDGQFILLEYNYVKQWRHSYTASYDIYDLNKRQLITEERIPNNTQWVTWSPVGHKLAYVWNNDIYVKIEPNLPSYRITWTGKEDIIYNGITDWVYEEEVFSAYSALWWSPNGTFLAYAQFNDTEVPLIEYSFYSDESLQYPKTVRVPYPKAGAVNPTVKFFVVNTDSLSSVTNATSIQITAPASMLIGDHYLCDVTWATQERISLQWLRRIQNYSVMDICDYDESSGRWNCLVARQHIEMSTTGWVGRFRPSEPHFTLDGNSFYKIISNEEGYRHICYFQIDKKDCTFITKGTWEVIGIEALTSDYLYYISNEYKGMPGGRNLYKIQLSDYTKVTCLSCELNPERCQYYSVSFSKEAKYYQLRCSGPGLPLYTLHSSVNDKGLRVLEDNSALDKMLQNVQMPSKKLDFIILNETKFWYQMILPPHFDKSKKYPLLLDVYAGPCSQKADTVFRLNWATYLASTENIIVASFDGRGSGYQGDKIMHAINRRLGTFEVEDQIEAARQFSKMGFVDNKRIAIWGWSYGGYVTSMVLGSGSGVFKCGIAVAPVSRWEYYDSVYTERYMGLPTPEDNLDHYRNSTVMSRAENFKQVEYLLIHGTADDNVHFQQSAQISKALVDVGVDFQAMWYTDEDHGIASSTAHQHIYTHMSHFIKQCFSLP

Turning to `CC(C)=CCC/C(C)=C/CCC1=C[C@@H](c2ccccc2)OC1=O` [S16, (S,E)-3-(4,8-dimethylnona-3,7-dien-1-yl)-5-phenylfuran-2(5H)-one], the IC50 on aldose reductase is 58.2 µM; at α-glucosidase, 0.23 µM; at HMG-CoA reductase it was 3.6 µM; in experiment [1], 12.5 µM; against dipeptidyl peptidase-4, 12 µM. The “blood sugar after administration” value in experiment [2] (50 mg/kg intragastric, 10 days, fasted 10 hours) is reported as 6.12** mmol/L. Besides, in experiment [2] (before administration), the “blood sugar before administration” value was found to be 15.25 mmol/L.

By IC50 is commonly meant the concentration needed to halve the response being measured.
